Test results published in US10499643B2, “Synergistic herbicidal composition and the method of controlling the growth of undesired plants” (JIANGSU ROTAM CHEMISTRY CO., LTD, priority 2016, dated 2019).

Tested on: gramineous weeds, broadleaf weeds, sedge weeds
Assay: Post-emergence test: stem and leaf treatment of potted weeds, fresh weight inhibition rate, synergy by Colby's equation
Type: in vivo
Experimental: The assessment on the synergistic effect of mixing two or more herbicidal active ingredients is determined based on the Colby's equation as described in “Calculation Synergistic and Antagonistic Response of Herbicide Combinations (Weeds 15/1 (1967), S. R. Colby)”.
Use stem and leaf treatment for potted grown plant (NY/T 1155.4-2006): fill a plastic pot (6 cm height, 9 cm diameter) with a quantity of soil and sow 15 to 20 seeds of monocotyledonous weeds and dicotyledonous weeds in the plastic pot, cover it with 0.5 to 1 cm thick of fine soil and then put it in greenhouse for cultivation. When weeds grow to the 2 to 4 leave stage, conduct the stem and leaf spray treatment with 1 mL herbicidal solution on each pot and repeat four times for each treatment and leave some pots untreated as control group. Keep the treated pots in a greenhouse for cultivation and observe the growing status of target weeds periodically. Conduct the visual test on the target weeds regarding the damage symptoms and growth inhibition effect after 21 days. Weigh up the fresh weight above the ground or plant fresh weight and evaluate the toxicity of the herbicidal formulation on target weeds based on the fresh weight inhibition rate of the target.
Prepare the following three formulations according to specific weight percentages: 1. Pyroxasulfone; 2. […] After that, dilute above formulations with water to obtain diluted formulations.
Conduct visual assessment the damage symptom and growth inhibition status of target weeds after 21 days. Weigh up the fresh weight above the ground and calculate the inhibition rate of fresh weight (%).
The assessment on the synergistic effect of mixing two or more herbicidal active ingredients is determined based on the Colby's equation as described in “Calculation Synergistic and Antagonistic Response of Herbicide Combinations (Weeds 15/1(1967), S. R. Colby)”.
Wherein, X represents Fresh Weight Inhibition Rate of Pyroxasulfone when applied alone at certain application rate against target weeds;

Compound | inhibition at 1 g/ha (post-emergence, Pyroxasulfone 1 g ai/ha alone, read-out: Herbicidal Activity % Experimental Data) [%] | inhibition at 5 g/ha (post-emergence, Pyroxasulfone 5 g ai/ha alone, read-out: Herbicidal Activity % Experimental Data) [%] | inhibition at 10 g/ha (post-emergence, Pyroxasulfone 10 g ai/ha alone, read-out: Herbicidal Activity % Experimental Data) [%] | inhibition at 25 g/ha (post-emergence, Pyroxasulfone 25 g ai/ha alone, read-out: Herbicidal Activity % Experimental Data) [%] | inhibition at 50 g/ha (post-emergence, Pyroxasulfone 50 g ai/ha alone, read-out: Herbicidal Activity % Experimental Data) [%] | Herbicidal Activity % Experimental Data (Thifensulfuron methyl 1 g ai/ha alone) [%] | Herbicidal Activity % Experimental Data (Thifensulfuron methyl 5 g ai/ha alone) [%] | Herbicidal Activity % Experimental Data (Thifensulfuron methyl 10 g ai/ha alone) [%] | Herbicidal Activity % Experimental Data (Thifensulfuron methyl 25 g ai/ha alone) [%] | Herbicidal Activity % Experimental Data (Thifensulfuron methyl 50 g ai/ha alone) [%]
Cn1nc(C(F)(F)F)c(CS(=O)(=O)C2=NOC(C)(C)C2)c1OC(F)F [Pyroxasulfone, 3-[5-(difluoromethoxy)-1-methyl-3-(trifluoromethyl)pyrazol-4-ylmethylsulfonyl]-4,5-dihydro-5,5-dimethyl-1,2-oxazole] | 11 | 22 | 40 | 49 | 63 |  |  |  |  | 
COC(=O)c1sccc1S(=O)(=O)NC(=O)Nc1nc(C)nc(OC)n1 [Thifensulfuron methyl] |  |  |  |  |  | 0 | 15.5 | 31.2 | 55.1 | 60.3
